US11851391B2, “Antifungal compounds and methods of forming the same” (University of Kentucky Research Foundation, priority 2018, dated 2023)
Converted amounts (≈) assume the structure as drawn. “Also recorded” adds a separate entry of the source. Read-outs that look alike come from different tables or passages of the source.

Columns and labels:
[1] = tested on: various yeast strains and filamentous fungi (strains A-M); assay: Antifungal activity over the whole panel (summary of MIC data); assay type: cell-based, Candida and Aspergillus strains; settings: for antifungal activity (in words): over the fungal strains tested, based on MIC data of Table 1
Description: (§1) The activity of N,N′-diaryl-bishydrazones 7-22 was tested against a panel of seven strains of C. albicans: ATCC 10231(R) (A), ATCC 64124(R) (B), ATCC MYA-2876(S) (C), ATCC 90819(R) (D), ATCC MYA-2310(S) (E), ATCC MYA-1237(R) (F), and ATCC MYA-1003(R) (G). The activity of these bishydrazones 7-22 was also explored against a panel of three non-albicans Candida strains: C. glabrata ATCC 2001 (H), C. krusei ATCC 6258 (I), and C. parapsilosis ATCC 22019 (J). Finally, the activity of these bishydrazones 7-22 was explored against three Aspergillus strains: A. flavus ATCC MYA-3631 (K), A. nidulans ATCC 38163 (L), and A. terreus ATCC MYA-3633 (M).
(§2) The MIC values of compounds 7a-24c against yeast cells (strains A-J) were determined in 96-well plates as described in the CLSI document M27-A3 with minor modifications. A single colony of freshly prepared yeast cells was used to inoculate 5 mL of yeast extract peptone dextrose (YPD) broth prior to incubation overnight with shaking at 200 rpm at 35° C. From the actively growing yeast culture, 100 μL were then transferred to 900 μL of sterile ddH2O and re-adjusted to achieve OD600 of 0.12 (˜1×10^6 CFU/mL). The cell suspension was further diluted to achieve 2-4×10^3 CFU/mL in RPMI 1640 medium. […] The final concentration of DMSO was ensured to be <1.25% in all experiments. The MIC values for compounds 7a-24c and CAS were defined as the minimum drug concentration that yielded complete inhibition (also known as MIC-0).
(§3) Similarly, the MIC values of compounds 7a-24c, as well as that of the two control drugs against filamentous fungi (strains K-M) were determined as previously described in CLSI document M38-A2. Spores were harvested from sporulating cultures growing on potato dextrose agar (PDA) by filtration through sterile glass wool and enumerated by using a hemocytometer to obtain the desired inoculum size. […] Spore suspensions were added to the wells to afford a final concentration of 5×10^5 CFU/mL. The plates were incubated at 35° C. for 48 h. The MIC values of compounds 7a-24c and CAS against filamentous fungi were based on the complete inhibition of growth when compared to the growth control (MIC-0). […] Each test was performed in triplicate.

[2] = tested on: Aspergillus nidulans ATCC 38163 (strain L); assay: MIC determination against filamentous fungi (CLSI M38-A2); assay type: cell-based; settings: Aspergillus nidulans, ATCC38163, 48 h, MIC-0, 48 h at 35° C., read-out: MIC
Description: as §1
(§4) Candida albicans ATCC 10231 (A), C. albicans ATCC 64124 (B), and C. albicans ATCC MYA-2876 (C) were kindly provided by Dr. Jon Y. Takemoto (Utah State University, Logan, UT, USA). C. albicans ATCC 90819 (D), C. albicans ATCC MYA-2310 (E), C. albicans ATCC MYA-1237 (F), C. albicans ATCC MYA-1003 (G), Candida glabrata ATCC 2001 (H), Candida krusei ATCC 6258 (I), Candida parapsilosis ATCC 22019 (J), Aspergillus flavus ATCC MYA-3631 (K), and Aspergillus terreus ATCC MYA-3633 (M) were obtained from the American Type Culture Collection (ATCC; Manassas, VA, USA). Aspergillus nidulans ATCC 38163 (L) was received from Dr. Jon S. Thorson (University of Kentucky, Lexington, KY, USA). Filamentous fungi and yeasts were cultivated at 35° C. in RPMI 1640 medium (with 1-glutamine, without sodium biocarbonate, Sigma-Aldrich, St. Louis, MO) buffered to a pH of 7.0 with 0.165 M morpholinepropanesulfonic acid (MOPS) buffer (Sigma-Aldrich).
as §3

[3] = tested on: Aspergillus terreus ATCC MYA-3633 (strain M); assay: as above; assay type: cell-based; settings: Aspergillus terreus, 48 h, MIC-0, 48 h at 35° C., read-out: MIC
Description: as §1, §4, §3

[4] = tested on: Aspergillus flavus ATCC MYA-3631 (strain K); assay: as above; assay type: cell-based; settings: Aspergillus flavus, 48 h, MIC-0, 48 h at 35° C., read-out: MIC
Description: as §1, §4, §3

[5] = tested on: C. albicans ATCC MYA-1237(R) (strain F); assay: MIC determination, in vitro antifungal assay (CLSI M27-A3); assay type: cell-based, Candida albicans; settings: Candida albicans, 48 h, MIC-0, 48 h at 35° C., read-out: MIC
Description: as §1, §4, §2

[6] = tested on: C. albicans ATCC MYA-2310(S) (strain E); assay: as above; assay type: cell-based, Candida albicans; settings: Candida albicans, 48 h, MIC-0, 48 h at 35° C., read-out: MIC
Description: as §1, §4, §2

[7] = tested on: C. albicans ATCC 90819(R) (strain D); assay: as above; assay type: cell-based, Candida albicans; settings: Candida albicans, ATCC90819, 48 h, MIC-0, 48 h at 35° C., read-out: MIC
Description: as §1, §4, §2

[8] = tested on: C. albicans ATCC 64124(R) (strain B); assay: as above; assay type: cell-based, Candida albicans; settings: Candida albicans, ATCC64124, 48 h, strain B; MIC-0; 48 h at 35° C.; read-out: MIC
Description: as §1, §4, §2

[9] = tested on: Candida glabrata ATCC 2001 (strain H); assay: as above; assay type: cell-based; settings: Nakaseomyces glabratus, ATCC2001, 48 h, MIC-0, 48 h at 35° C., read-out: MIC
Description: as §1, §4
(§5) A single colony of freshly prepared yeast cells was used to inoculate 5 mL of yeast extract peptone dextrose (YPD) broth prior to incubation overnight with shaking at 200 rpm at 35° C. From the actively growing yeast culture, 100 μL were then transferred to 900 μL of sterile ddH2O and re-adjusted to achieve OD600 of 0.12 (˜1×10^6 CFU/mL). The cell suspension was further diluted to achieve 2-4×10^3 CFU/mL in RPMI 1640 medium. […] The final concentration of DMSO was ensured to be <1.25% in all experiments.

[10] = tested on: Candida krusei ATCC 6258 (strain I); assay: as above; assay type: cell-based; settings: Pichia kudriavzevii, ATCC6258, 48 h, MIC-0, 48 h at 35° C., read-out: MIC
Description: as §1, §4, §5

[11] = tested on: Candida albicans ATCC 10231(R) (strain A); assay: as above; assay type: cell-based; settings: MIC-0 (no visible growth), 48 h at 35° C.
Description: as §1, §4, §2

[12] = tested on: Candida parapsilosis ATCC 22019 (strain J); assay: as above; assay type: cell-based; settings: strain J, MIC-0, 48 h at 35° C.
Description: as §1, §4, §2

[13] = tested on: C. albicans ATCC MYA-2876(S) (strain C); assay: as above; assay type: cell-based, Candida albicans; settings: Candida albicans, 48 h, MIC-0, 48 h at 35° C., read-out: MIC
Description: as §1, §4, §5

[14] = tested on: C. albicans ATCC MYA-1003(R) (strain G); assay: as above; assay type: cell-based, Candida albicans; settings: MIC-0, 48 h at 35° C.
Description: as §1, §4, §5

[15] = tested on: murine red blood cells (mRBCs); settings: for Percentage of hemolysis (±SDEV): mouse, 60 min
Description: Thus, the hemolytic activity for these bishydrazones was investigated against murine red blood cells (mRBCs).
Murine red blood cells (mRBCs) were prepared by suspending 1 mL of murine blood in 3 mL of PBS prior to centrifugation at 1,000 rpm for 5 min. The mRBCs were washed four times in PBS and resuspended in the same buffer to a final concentration of 10^7 mRBC/mL. […] The tubes were incubated at 37° C. for 60 min. […] Eppendorf tubes containing 200 μL of ddH2O and 2 μL of 1% v/v Triton™ X-100 served as negative (blank) and positive controls, respectively. The percentage of hemolysis was calculated using the following equation: % hemolysis=[(absorbance of sample)−(absorbance of blank)]×100/(absorbance of positive control).

[16] = Candida albicans, ATCC10231, 48 h, read-out: MIC
[17] = Lodderomyces parapsilosis, ATCC22019, 48 h, read-out: MIC
[18] = Candida albicans, 48 h, read-out: MIC

| Compound | MIC [2] | MIC [3] | MIC [4] | MIC [5] | MIC [6] | MIC [7] | MIC [8] | MIC [9] | MIC [10] | MIC [11, 16] | MIC [12, 17] | MIC [13] | MIC [14, 18] | antifungal activity (in words) [1] | further results |
| --- | --- | --- | --- | --- | --- | --- | --- | --- | --- | --- | --- | --- | --- | --- | --- |
| COc1ccccc1N/N=C(\C)c1ccc(-c2ccc(/C(C)=N/Nc3ccccc3OC)cc2)cc1 [Compound 9c] | > 31.3 µg/mL | > 31.3 µg/mL | > 31.3 µg/mL | > 31.3 µg/mL | > 31.3 µg/mL | > 31.3 µg/mL | > 31.3 µg/mL | > 31.3 µg/mL | 31.3 µg/mL (≈ 65.4 µM) | 15.6 µg/mL (≈ 32.6 µM) | 31.3 µg/mL (≈ 65.4 µM) | > 31.3 µg/mL | 31.3 µg/mL (≈ 65.4 µM) |  | MIC ([1]; against all fungal strains tested, with named exceptions, read-out: antifungal activity class based on MIC values): ≥ 31.3 µg/mL; MIC [11]: 15.6 µg/mL (≈ 32.6 µM) |
| N#Cc1ccc(N/N=C/c2ccc(-c3ccc(/C=N/Nc4ccc(C#N)cc4)cc3)cc2)cc1 [Compound 13b] | > 31.3 µg/mL | 31.3 µg/mL (≈ 71.1 µM) | > 31.3 µg/mL | > 31.3 µg/mL | > 31.3 µg/mL | > 31.3 µg/mL | > 31.3 µg/mL | > 31.3 µg/mL | > 31.3 µg/mL | > 31.3 µg/mL | > 31.3 µg/mL | > 31.3 µg/mL | 31.3 µg/mL (≈ 71.1 µM) | inactive |  |
| N=C(N)N/N=C/c1ccc(-c2cccc(/C=N/NC(=N)N)c2)cc1 [Compound 24a] | 7.8 µg/mL (≈ 24.2 µM) | 7.8 µg/mL (≈ 24.2 µM) | > 31.3 µg/mL | 7.8 µg/mL (≈ 24.2 µM) | 3.9 µg/mL (≈ 12.1 µM) | > 31.3 µg/mL | 3.9 µg/mL (≈ 12.1 µM) | 3.9 µg/mL (≈ 12.1 µM) | 1.95 µg/mL (≈ 6.05 µM) | 1.95 to 3.9 µg/mL (≈ 6.05 to 12.1 µM) | 1.95 µg/mL (≈ 6.05 µM) | 3.9 µg/mL (≈ 12.1 µM) | > 31.3 µg/mL |  | hemolytic activity (in words) [15]: lack of hemolytic activity; Percentage of hemolysis (±SDEV) ([15]; 0.975 μg/mL): 0%; Percentage of hemolysis (±SDEV) ([15]; 1.95 μg/mL): 1.1 ± 2.2%; Percentage of hemolysis (±SDEV) ([15]; 3.9 μg/mL): 1.2 ± 1.7%; Percentage of hemolysis (±SDEV) ([15]; 7.8 μg/mL): 2.3 ± 0.5%; Percentage of hemolysis (±SDEV) ([15]; 15.6 μg/mL): 3.8 ± 0.5%; Percentage of hemolysis (±SDEV) ([15]; 31.3 μg/mL): 3.8 ± 1.7% |

Further lines, with some results ahead:

| MIC [2] | MIC [3] | MIC [4] | MIC [5] | MIC [6] | MIC [7] | MIC [8] | MIC [9] | MIC [10] | MIC [11, 16] | MIC [12, 17] | MIC [13] | MIC [14, 18] | Compound | antifungal activity (in words) [1] | further results |
| --- | --- | --- | --- | --- | --- | --- | --- | --- | --- | --- | --- | --- | --- | --- | --- |
| > 31.3 µg/mL | > 31.3 µg/mL | > 31.3 µg/mL | > 31.3 µg/mL | > 31.3 µg/mL | > 31.3 µg/mL | > 31.3 µg/mL | > 31.3 µg/mL | > 31.3 µg/mL | > 31.3 µg/mL | > 31.3 µg/mL | > 31.3 µg/mL | > 31.3 µg/mL | CC(C)Oc1ccc(N/N=C/c2ccc(-c3ccc(/C=N/Nc4ccc(OC(C)C)cc4)cc3)cc2)cc1 [Compound 16b] | inactive |  |
| > 31.3 µg/mL | > 31.3 µg/mL | > 31.3 µg/mL | 15.6 µg/mL (≈ 34 µM) | 31.3 µg/mL (≈ 68.1 µM) | 15.6 µg/mL (≈ 34 µM) | 7.8 µg/mL (≈ 17 µM) | 15.6 µg/mL (≈ 34 µM) | 31.3 µg/mL (≈ 68.1 µM) | 7.8 µg/mL (≈ 17 µM) | 1.95 to 3.9 µg/mL (≈ 4.24 to 8.49 µM) | 15.6 µg/mL (≈ 34 µM) | 1.95 to 3.9 µg/mL (≈ 4.24 to 8.49 µM) | Clc1ccc(N/N=C/c2ccc(-c3cccc(/C=N/Nc4ccc(Cl)cc4)c3)cc2)cc1 [Compound 18a] | overall antifungal activity against all the strains tested; also recorded: good activity against the majority of the fungal strains tested; also recorded: excellent activity only against yeast strains | MIC [12]: 3.9 µg/mL (≈ 8.49 µM); MIC [14]: 3.9 µg/mL (≈ 8.49 µM) |
